Data reported in US10738030B2, “Modulators of cystic fibrosis transmembrane conductance regulator” (Vertex Pharmaceuticals Incorporated, priority 2016, dated 2020).

Biological target: T1, F508del (Homo sapiens, UniProt P13569, DEL508-508)
T1 construct: expressed in transfected cells
Experiment: Membrane potential optical assay (FRET voltage-sensor dyes), identification of correction compounds
Type: cell-based
Settings: NIH3T3 cells stably expressing F508del, procedures described above; for Emax: maximum efficacy, read-out: Max Efficacy; for EC50: modulation of CFTR activity
Procedure: (§1) NIH3T3 mouse fibroblasts stably expressing F508del are used for optical measurements of membrane potential. The cells are maintained at 37° C. in 5% CO2 and 90% humidity in Dulbecco's modified Eagle's medium supplemented with 2 mM glutamine, 10% fetal bovine serum, 1×NEAA, β-ME, 1× pen/strep, and 25 mM HEPES in 175 cm^2 culture flasks. For all optical assays, the cells were seeded at 12,000 cells/well in 384-well matrigel-coated plates and cultured for 18-24 hrs at 37° C. for the potentiator assay. For the correction assays, the cells are cultured at 37° C. with and without compounds for 18-24 hours.
Membrane potential optical methods for assaying F508del modulation properties of compounds.
The optical membrane potential assay utilized voltage-sensitive FRET sensors described by Gonzalez and Tsien (See Gonzalez, J. E. and R. Y. Tsien (1995) “Voltage sensing by fluorescence resonance energy transfer in single cells” Biophys J 69(4): 1272-80, and Gonzalez, J. E. and R. Y. Tsien (1997) “Improved indicators of cell membrane potential that use fluorescence resonance energy transfer” Chem Biol 4(4): 269-77) in combination with instrumentation for measuring fluorescence changes such as the Voltage/Ion Probe Reader (VIPR) (See, Gonzalez, J. E., K. Oades, et al. (1999) “Cell-based assays and instrumentation for screening ion-channel targets” Drug Discov Today 4(9): 431-439).
These voltage sensitive assays are based on the change in fluorescence resonant energy transfer (FRET) between the membrane-soluble, voltage-sensitive dye, DiSBAC2(3), and a fluorescent phospholipid, CC2-DMPE, which is attached to the outer leaflet of the plasma membrane and acts as a FRET donor. Changes in membrane potential (Vm) cause the negatively charged DiSBAC2(3) to redistribute across the plasma membrane and the amount of energy transfer from CC2-DMPE changes accordingly. The changes in fluorescence emission were monitored using VIPR™ II, which is an integrated liquid handler and fluorescent detector designed to conduct cell-based screens in 96- or 384-well microtiter plates.
To identify small molecules that correct the trafficking defect associated with F508del; a single-addition HTS assay format was developed. The cells were incubated in serum-free medium for 16 hrs at 37° C. in the presence or absence (negative control) of test compound. As a positive control, cells plated in 384-well plates were incubated for 16 hrs at 27° C. to “temperature-correct” F508del. The cells were subsequently rinsed 3× with Krebs Ringers solution and loaded with the voltage-sensitive dyes. To activate F508del, 10 μM forskolin and the CFTR potentiator, genistein (20 μM), were added along with Cl^−-free medium to each well. The addition of Cl^−-free medium promoted Cl^− efflux in response to F508del activation and the resulting membrane depolarization was optically monitored using the FRET-based voltage-sensor dyes.
• Bath Solution #1: (in mM) NaCl 160, KCl 4.5, CaCl2 2, MgCl2 1, HEPES 10, pH 7.4 with NaOH. • Chloride-free bath solution: Chloride salts in Bath Solution #1 (above) are substituted with gluconate salts. • CC2-DMPE: Prepared as a 10 mM stock solution in DMSO and stored at −20° C. • DiSBAC2(3): Prepared as a 10 mM stock in DMSO and stored at −20° C. Cell Culture
as §1, with “seeded at 30,000/well in 384-well” for “seeded at 12,000 cells/well in 384-well”, “cultured for 2 hrs at” for “cultured for 18-24 hrs at”, “37° C. before culturing at 27° C. for 24 hrs for the” for “37° C. for the”, “cultured at 27° C. or 37° C.” for “cultured at 37° C.”, “compounds for 16-24 hours.” for “compounds for 18-24 hours.”

T1 sequence (P13569 with tags, fused parts or gaps DEL508-508): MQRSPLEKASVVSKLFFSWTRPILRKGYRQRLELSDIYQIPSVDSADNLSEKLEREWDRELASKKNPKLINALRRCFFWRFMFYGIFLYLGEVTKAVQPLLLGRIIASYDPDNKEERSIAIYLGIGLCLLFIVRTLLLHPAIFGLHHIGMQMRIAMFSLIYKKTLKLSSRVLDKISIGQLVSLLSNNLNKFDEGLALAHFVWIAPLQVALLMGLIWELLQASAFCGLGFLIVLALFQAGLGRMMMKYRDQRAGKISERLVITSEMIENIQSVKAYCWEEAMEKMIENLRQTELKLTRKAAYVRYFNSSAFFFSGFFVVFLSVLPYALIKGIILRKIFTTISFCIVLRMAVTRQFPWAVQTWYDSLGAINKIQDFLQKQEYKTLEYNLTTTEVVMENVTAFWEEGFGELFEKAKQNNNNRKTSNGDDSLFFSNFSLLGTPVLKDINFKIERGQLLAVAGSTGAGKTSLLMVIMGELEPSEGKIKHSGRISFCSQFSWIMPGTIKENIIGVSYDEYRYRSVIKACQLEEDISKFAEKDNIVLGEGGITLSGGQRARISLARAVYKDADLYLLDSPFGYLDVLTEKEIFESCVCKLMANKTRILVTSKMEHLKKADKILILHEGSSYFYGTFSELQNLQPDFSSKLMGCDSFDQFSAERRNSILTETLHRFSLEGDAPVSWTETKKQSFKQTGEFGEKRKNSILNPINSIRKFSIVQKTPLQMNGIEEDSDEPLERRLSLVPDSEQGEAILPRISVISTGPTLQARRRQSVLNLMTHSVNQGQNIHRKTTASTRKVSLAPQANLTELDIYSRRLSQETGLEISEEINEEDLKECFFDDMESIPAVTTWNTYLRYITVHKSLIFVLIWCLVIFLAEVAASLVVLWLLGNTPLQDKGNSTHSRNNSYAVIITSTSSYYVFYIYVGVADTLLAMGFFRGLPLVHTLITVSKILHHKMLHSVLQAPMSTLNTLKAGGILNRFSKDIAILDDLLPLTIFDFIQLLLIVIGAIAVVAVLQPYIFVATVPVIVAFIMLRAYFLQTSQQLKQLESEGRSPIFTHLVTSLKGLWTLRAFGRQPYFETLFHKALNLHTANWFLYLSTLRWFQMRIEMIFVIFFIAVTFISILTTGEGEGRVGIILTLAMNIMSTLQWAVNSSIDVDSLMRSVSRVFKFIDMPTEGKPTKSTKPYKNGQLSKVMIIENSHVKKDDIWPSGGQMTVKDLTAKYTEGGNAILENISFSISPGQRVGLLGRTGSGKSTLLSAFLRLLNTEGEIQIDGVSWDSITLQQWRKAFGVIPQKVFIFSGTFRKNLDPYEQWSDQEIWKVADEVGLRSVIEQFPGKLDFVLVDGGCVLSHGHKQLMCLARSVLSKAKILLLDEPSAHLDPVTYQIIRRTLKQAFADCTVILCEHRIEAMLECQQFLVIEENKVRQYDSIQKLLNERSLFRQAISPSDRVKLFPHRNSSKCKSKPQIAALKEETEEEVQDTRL

In the case of CC(C)COc1cc(F)cc(-c2ccc(C(=O)NS(=O)(=O)c3cccc(N)n3)c(N(C)CC(F)F)n2)c1 [Compound 1, N-[(6-amino-2-pyridyl)sulfonyl]-2-[2,2-difluoroethyl(methyl)amino]-6-(3-fluoro-5-isobutoxy-phenyl)pyridine-3-carboxamide], the Emax is reported as greater than 80% and the EC50 is reported as less than 3 µM.

With CC(C)CCOc1nc(-c2cc(F)cc(OCC(C)C)c2)ccc1C(=O)NS(=O)(=O)c1cccc(N)n1 [Compound 2, N-[(6-amino-2-pyridyl)sulfonyl]-6-(3-fluoro-5-isobutoxy-phenyl)-2-isopentyloxy-pyridine-3-carboxamide] the Emax was greater than 80% and the EC50 was less than 3 µM.

CC(C)COc1cc(F)cc(-c2ccc(C(=O)NS(=O)(=O)c3cccc(N)n3)c(OCCC(C)(C)C)n2)c1 [Compound 3, N-[(6-amino-2-pyridyl)sulfonyl]-2-(3,3-dimethylbutoxy)-6-(3-fluoro-5-isobutoxy-phenyl)pyridine-3-carboxamide] was tested, and the Emax was greater than 80% and the EC50 was less than 3 µM.

CC(C)COc1cc(F)cc(-c2ccc(C(=O)NS(=O)(=O)c3cccc(N)n3)c(OCCOC(C)(C)C)n2)c1 [Compound 4, N-[(6-amino-2-pyridyl)sulfonyl]-2-(2-tert-butoxyethoxy)-6-(3-fluoro-5-isobutoxy-phenyl)pyridine-3-carboxamide] showed an Emax of 30 to 80% and an EC50 of less than 3 µM.

Work on CC(C)COc1cc(F)cc(-c2ccc(C(=O)NS(=O)(=O)c3cccc(N)n3)c(OC(C)C)n2)c1 [Compound 5, N-[(6-amino-2-pyridyl)sulfonyl]-6-(3-fluoro-5-isobutoxy-phenyl)-2-isopropoxy-pyridine-3-carboxamide] yielded an Emax greater than 80% and an EC50 of less than 3 µM.

CC(C)COc1cc(F)cc(-c2ccc(C(=O)NS(=O)(=O)c3cccc(N)n3)c(OC(C)C(F)(F)C(F)F)n2)c1 (centres unmarked) [Compound 6, N-[(6-amino-2-pyridyl)sulfonyl]-6-(3-fluoro-5-isobutoxy-phenyl)-2-(2,2,3,3-tetrafluoro-1-methyl-propoxy)pyridine-3-carboxamide] gave an Emax of 30 to 80% and an EC50 of less than 3 µM.

Compound CC(C)COc1cc(F)cc(-c2ccc(C(=O)NS(=O)(=O)c3cccc(N)n3)c3nc(C(F)(F)F)cn23)c1 [Compound 7, N-[(6-amino-2-pyridyl)sulfonyl]-5-(3-fluoro-5-isobutoxy-phenyl)-2-(trifluoromethyl)imidazo[1,2-a]pyridine-8-carboxamide] has an Emax of 30 to 80% and an EC50 of less than 3 µM.

For CCN(CC)c1nc(-c2ccc(OC(C)C)nc2)ccc1C(=O)NS(=O)(=O)c1cccc(N)n1 [Compound 8, N-((6-Aminopyridin-2-yl)sulfonyl)-6-(diethylamino)-6′-isopropoxy-[2,3′-bipyridine]-5-carboxamide], the Emax was 30 to 80% and the EC50 was 3 to 10 µM.

Compound CC(C)COc1cc(F)cc(-c2ccc(C(=O)NS(=O)(=O)c3cccc(N)n3)c(OC(C)CC(F)(F)F)n2)c1 (centres unmarked) [Compound 9, N-[(6-amino-2-pyridyl)sulfonyl]-6-(3-fluoro-5-isobutoxy-phenyl)-2-(3,3,3-trifluoro-1-methyl-propoxy)pyridine-3-carboxamide] has an Emax of 30 to 80% and an EC50 of less than 3 µM.

With COc1nc(-c2cc(F)cc(OCC(C)C)c2)ccc1C(=O)NS(=O)(=O)c1cccc(N)n1 [Compound 10, N-[(6-amino-2-pyridyl)sulfonyl]-6-(3-fluoro-5-isobutoxy-phenyl)-2-methoxy-pyridine-3-carboxamide] the Emax was 30 to 80% and the EC50 was less than 3 µM.

For CCCCCOc1nc(-c2cc(F)cc(OCC(C)C)c2)ccc1C(=O)NS(=O)(=O)c1cccc(N)n1 [Compound 11, N-[(6-amino-2-pyridyl)sulfonyl]-6-(3-fluoro-5-isobutoxy-phenyl)-2-pentoxy-pyridine-3-carboxamide], the Emax was greater than 80% and the EC50 was less than 3 µM.

For CCC(C)C(C)Oc1nc(-c2cc(F)cc(OCC(C)C)c2)ccc1C(=O)NS(=O)(=O)c1cccc(N)n1 (centres unmarked) [Compound 12, N-[(6-amino-2-pyridyl)sulfonyl]-2-(1,2-dimethylbutoxy)-6-(3-fluoro-5-isobutoxy-phenyl)pyridine-3-carboxamide], the Emax was greater than 80% and the EC50 was less than 3 µM.

CCOCCOc1nc(-c2cc(F)cc(OCC(C)C)c2)ccc1C(=O)NS(=O)(=O)c1cccc(N)n1 [Compound 13, N-[(6-amino-2-pyridyl)sulfonyl]-2-(2-ethoxyethoxy)-6-(3-fluoro-5-isobutoxy-phenyl)pyridine-3-carboxamide] was tested, and the Emax was 30 to 80% and the EC50 was less than 3 µM.

CCN(c1nc(-c2ccc(OC(C)C)nc2)ccc1C(=O)NS(=O)(=O)c1cccc(N)n1)C(C)C [Compound 14, N-[(6-amino-2-pyridyl)sulfonyl]-2-[ethyl(isopropyl)amino]-6-(6-isopropoxy-3-pyridyl)pyridine-3-carboxamide] gave an Emax of 30 to 80% and an EC50 of less than 3 µM.

In the case of CC(C)(C)COc1nc(C(C)(C)C)ccc1C(=O)NS(=O)(=O)c1cccc(N)n1 [Compound 15, N-[(6-amino-2-pyridyl)sulfonyl]-6-tert-butyl-2-(2,2-dimethylpropoxy)pyridine-3-carboxamide], the Emax is reported as 30 to 80% and the EC50 is reported as less than 3 µM.

Compound CCN(c1nc(-c2cc(F)cc(OCC(C)C)c2)ccc1C(=O)NS(=O)(=O)c1ccn[nH]1)C(C)C [Compound 16, 2-[ethyl(isopropyl)amino]-6-(3-fluoro-5-isobutoxy-phenyl)-N-(1H-pyrazol-5-ylsulfonyl)pyridine-3-carboxamide] has an Emax greater than 80% and an EC50 of less than 3 µM.

For CC(C)COc1cc(F)cc(-c2ccc(C(=O)NS(=O)(=O)c3cccc(N)n3)c(N(C)[C@@H](C)C(F)(F)F)n2)c1 [Compound 17, N-[(6-amino-2-pyridyl)sulfonyl]-6-(3-fluoro-5-isobutoxy-phenyl)-2-[methyl-[(1 S)-2,2,2-trifluoro-1-methyl-ethyl]amino]pyridine-3-carboxamide], the Emax was greater than 80% and the EC50 was less than 3 µM.

CCC(COC)Oc1nc(-c2cc(F)cc(OCC(C)C)c2)ccc1C(=O)NS(=O)(=O)c1cccc(N)n1 (centres unmarked) [Compound 18, N-[(6-amino-2-pyridyl)sulfonyl]-6-(3-fluoro-5-isobutoxy-phenyl)-2-[1-(methoxymethyl)propoxy]pyridine-3-carboxamide] gave an Emax of 30 to 80% and an EC50 of less than 3 µM.

For CC(C)COc1cc(F)cc(-c2ccc(C(=O)NS(=O)(=O)c3cccc(N)n3)c(N(C)C)n2)c1 [Compound 19, N-[(6-amino-2-pyridyl)sulfonyl]-2-(dimethylamino)-6-(3-fluoro-5-isobutoxy-phenyl)pyridine-3-carboxamide], the Emax was greater than 80% and the EC50 was less than 3 µM.

COC[C@H](C)Oc1nc(-c2cc(F)cc(OCC(C)C)c2)ccc1C(=O)NS(=O)(=O)c1cccc(N)n1 [Compound 20, N-[(6-amino-2-pyridyl)sulfonyl]-6-(3-fluoro-5-isobutoxy-phenyl)-2-[(1S)-2-methoxy-1-methyl-ethoxy]pyridine-3-carboxamide] showed an Emax of 30 to 80% and an EC50 of less than 3 µM.

In the case of COCCCOc1nc(-c2cc(F)cc(OCC(C)C)c2)ccc1C(=O)NS(=O)(=O)c1cccc(N)n1 [Compound 21, N-[(6-amino-2-pyridyl)sulfonyl]-6-(3-fluoro-5-isobutoxy-phenyl)-2-(3-methoxypropoxy)pyridine-3-carboxamide], the Emax is reported as 30 to 80% and the EC50 is reported as less than 3 µM.

For COC(C)(C)CCOc1nc(-c2cc(F)cc(OCC(C)C)c2)ccc1C(=O)NS(=O)(=O)c1cccc(N)n1 [Compound 22, N-[(6-amino-2-pyridyl)sulfonyl]-6-(3-fluoro-5-isobutoxy-phenyl)-2-(3-methoxy-3-methyl-butoxy)pyridine-3-carboxamide], the Emax was 30 to 80% and the EC50 was less than 3 µM.
